{"source": "patent US8290713B2", "about": "“Method for predicting protein aggregation and designing aggregation inhibitors” (Lonza Biologics PLLC, priority 2006, dated 2012)", "target": "ASYN (α-synuclein) (Homo sapiens, UniProt P37840)", "assay": "ASYN aggregation assay in TBS monitored by thioflavin T fluorescence", "assay_type": "biochemical", "conditions": "50 μM ASYN, 100 μM inhibitor, 50 mM tris, 150 mM NaCl, 20 μM Thioflavin T, 37 C with shaking, 48 hours; sigmoidal fit", "method": "All peptides were tested for inhibition of ASYN aggregation in TBS by carrying out aggregation assays with 50 μM ASYN and 100 μM inhibitor with 50 mM tris and 150 mM NaCl and 20 μM Thioflavin T. The reaction volume was 200 μL. Each reaction was set up in a 96 well polypropylene plate with ASYN only and buffer only controls. The reactions were incubated at 37 C with shaking for 48 hours and aggregation was monitored by reading thioflavin T fluorescence.\nThe kinetic traces were fitted using Zyentiafit software which fits the data to a Sigmoidal function f(x)=k+A/(1+exp(−b(t−t0))) from which the lag time, rate of aggregation and total change in ThT fluorescence may be calculated."}
{"substance": "Ac-hpviva-NH2 [ZP-0164]", "values": [{"measurement": "% decrease in ThT fluorescence", "result": 3.7, "unit": "%"}, {"measurement": "% decrease in rate of aggregation", "result": "−2.3", "unit": "%"}, {"measurement": "% increase in Lag phase", "result": 43.0, "unit": "%"}]}
